Read-outs that look alike come from different tables or passages of the source.
How the values were obtained:
[1] = target: MST2 (Homo sapiens (Human), UniProt Q13188); assay: MST2 biochemical LanthaScreen Eu Kinase Binding Assay
Protocol: (§1) MST1 and MST2 biochemical LanthaScreen Eu Kinase Binding Assay was based on the binding and displacement of kinase tracer to the kinase of interest. Compounds in 1000×DMSO stock solution was dispensed using automated dispensing system (Labcyte) to 384 well Corning Microplate at 15 nL, 5 uL of Kinase buffer A was added to each well. Plates were shaken and incubated for 1 min to ensure well dissolution of compounds.

[2] = target: MST1 (Homo sapiens (Human), UniProt Q13043); assay: MST1 biochemical LanthaScreen Eu Kinase Binding Assay
Protocol: as §1

[3] = read-out: Kinase Binding assay-MST2 IC50
[4] = read-out: Kinase Binding assay-MST1 IC50

MST1, sequence (Q13043 whole entry): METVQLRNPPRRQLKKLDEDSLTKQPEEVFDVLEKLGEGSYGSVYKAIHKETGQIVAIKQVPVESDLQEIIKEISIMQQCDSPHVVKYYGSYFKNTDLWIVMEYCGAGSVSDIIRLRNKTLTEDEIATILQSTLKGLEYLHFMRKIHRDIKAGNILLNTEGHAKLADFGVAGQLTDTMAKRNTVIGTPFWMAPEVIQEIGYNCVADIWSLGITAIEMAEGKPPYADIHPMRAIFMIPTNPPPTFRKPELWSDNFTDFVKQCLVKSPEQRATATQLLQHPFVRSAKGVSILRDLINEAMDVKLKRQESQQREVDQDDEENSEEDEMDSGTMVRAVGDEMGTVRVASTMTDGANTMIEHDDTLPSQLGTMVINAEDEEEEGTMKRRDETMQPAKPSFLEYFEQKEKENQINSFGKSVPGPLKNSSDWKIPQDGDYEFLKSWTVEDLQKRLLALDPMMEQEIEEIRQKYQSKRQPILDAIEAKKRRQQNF
MST2, sequence (Q13188 whole entry): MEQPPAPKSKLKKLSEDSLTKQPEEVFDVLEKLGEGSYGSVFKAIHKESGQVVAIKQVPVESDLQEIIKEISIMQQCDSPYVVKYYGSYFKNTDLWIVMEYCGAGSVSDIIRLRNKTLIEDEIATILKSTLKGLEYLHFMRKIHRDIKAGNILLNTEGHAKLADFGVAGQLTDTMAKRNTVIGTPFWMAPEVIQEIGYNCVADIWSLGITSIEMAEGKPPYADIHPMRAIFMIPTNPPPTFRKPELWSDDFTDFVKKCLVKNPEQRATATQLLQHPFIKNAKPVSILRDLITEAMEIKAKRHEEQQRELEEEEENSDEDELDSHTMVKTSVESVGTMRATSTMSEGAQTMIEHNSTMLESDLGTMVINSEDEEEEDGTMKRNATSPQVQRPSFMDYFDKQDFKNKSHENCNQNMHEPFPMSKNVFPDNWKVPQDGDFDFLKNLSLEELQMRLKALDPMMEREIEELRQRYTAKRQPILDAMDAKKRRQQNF

IC50 [1, 3]	IC50 [2, 4]	SMILES	IC50 [1]	IC50 [2]
< 100 nM	< 100 nM	CCOc1cc2ncc(C#N)c(Nc3ccc(OCc4ncccc4F)c(Cl)c3)c2cc1NC(=O)CCCN(C)C [Example 16]		
		CCOc1cc2ncc(C#N)c(Nc3ccc(OCc4ccc(F)cn4)c(Cl)c3)c2cc1NC(=O)CCCN(C)C [Example 13]	100 to 1000 nM	100 to 1000 nM
		CCOc1cc2ncc(C#N)c(Nc3ccc(OCc4ncccc4C)cc3C(F)(F)F)c2cc1NC(=O)CCCN(C)C [Example 29]	100 to 1000 nM	100 to 1000 nM
< 100 nM	< 100 nM	CCOc1cc2ncc(C#N)c(Nc3ccc(OCc4cn5cccc(C)c5n4)c(Cl)c3)c2cc1NC(=O)CCCN(C)C [Example 41]		
< 100 nM	< 100 nM	CCOc1cc2ncc(C#N)c(Nc3ccc(OCc4ncccc4C)cc3F)c2cc1NC(=O)CCCN(C)C [Example 23]		
		CCOc1cc2ncc(C#N)c(Nc3ccc(NC(=O)c4ncccc4C)c(Cl)c3)c2cc1NC(=O)CCCN(C)C [Example 108, N-(2-chloro-4-(3-cyano-6-(4-(dimethylamino)butanamido)-7-ethoxyquinolin-4-ylamino)phenyl)-3-methylpicolinamide]	100 to 1000 nM	100 to 1000 nM
		CCOc1cc2ncc(C=O)c(Nc3ccc(OCc4ncccc4C)cc3Cl)c2cc1NC(=O)CCCN(C)C [Example 145, N-(4-(2-chloro-4-((3-methylpyridin-2-yl)methoxy)phenylamino)-7-ethoxy-3-formylquinolin-6-yl)-4-(dimethylamino)butanamide]	1000 to 10000 nM	1000 to 10000 nM
< 100 nM	< 100 nM	CCOc1cc2ncc(C#N)c(Nc3ccc(OCc4ncccc4C)cc3Cl)c2cc1NC(=O)CCCN(C)C [Example 25, N-(4-((2-chloro-4-((3-methyl-pyridin-2-yl)methoxy)phenyl)amino)-3-cyano-7-ethoxyquinolin-6-yl)-4-(dimethylamino)butanamide]		
< 100 nM	< 100 nM	CCOc1cc2ncc(C#N)c(Nc3cc(Cl)c(OCc4ncccc4C)cc3C)c2cc1NC(=O)CCCN(C)C [Example 78]		
< 100 nM	< 100 nM	CCOc1cc2ncc(C#N)c(Nc3ccc(OCc4cc(Cl)ccn4)c(Cl)c3)c2cc1NC(=O)CCCN(C)C [Example 2]		
< 100 nM	< 100 nM	CCOc1cc2ncc(C#N)c(Nc3cccc(Cl)c3)c2cc1NC(C)=O [Example 127]		
< 100 nM	< 100 nM	CCOc1cc2ncc(C#N)c(Nc3cc(Cl)c(OCc4ncccc4C)cc3Cl)c2cc1NC(=O)CCCN(C)C [Example 75]		
		CCOc1cc2ncc(C#N)c(Nc3ccc(OCc4ccccn4)c(Cl)c3)c2cc1NC [Example 140, 4-(3-chloro-4-(pyridin-2-ylmethoxy)phenylamino)-7-ethoxy-6-(methylamino)quinoline-3-carbonitrile]	1000 to 10000 nM	100 to 1000 nM
< 100 nM	< 100 nM	CCOc1cc2ncc(C#N)c(Nc3ccc(OCc4ncccc4C)c(C)c3C)c2cc1NC(=O)CCCN(C)C [Example 33]		

SMILES	IC50 [1, 3]	IC50 [2, 4]	IC50 [1]	IC50 [2]
CCOc1cc2ncc(C#N)c(Nc3ccc(OCc4ccc(C)cn4)c(Cl)c3)c2cc1NC(=O)CCCN(C)C [Example 11]	< 100 nM	100 to 1000 nM		
CCOc1cc2ncc(C#N)c(Nc3ccc(OCc4cc(OC)ccn4)c(Cl)c3)c2cc1NC(=O)CCCN(C)C [Example 37]		< 100 nM	100 to 1000 nM	
CCOc1cc2ncc(C#N)c(Nc3ccc(OCc4nc5ccccc5nc4C)c(Cl)c3)c2cc1NC(=O)CCCN(C)C [Example 42]		< 100 nM	100 to 1000 nM	
CCOc1cc2ncc(C#N)c(Nc3ccc(OCc4ccccn4)c(Cl)c3)c2cc1NC(C)=O [Example 85]		< 100 nM	1000 to 10000 nM	
CCOc1cc2ncc(C#N)c(Nc3ccc(OCc4cccc(Br)n4)c(Cl)c3)c2cc1NC(=O)CCCN(C)C [Example 3]	< 100 nM	< 100 nM		
CCOc1cc2ncc(C#N)c(Nc3ccc(OCc4cc(C)ccn4)c(Cl)c3)c2cc1NC(=O)CCCN(C)C [Example 10]		< 100 nM	100 to 1000 nM	
